Laboratory results from patent publication US10947546B2, “Methods and compositions for translational profiling and molecular phenotyping” (The Rockefeller University, priority 2008, dated 2021).

Columns and labels:
DARPP-32 = assay: Threonine 34 DARPP-32 phosphorylation after S1P treatment of striatal slices; assay type: cell-based; settings: 5 minutes after S1P addition, 1.04±0.17 at 0 minutes, n=12
[1] = system: BAC D2 striatopallidal medium spiny neurons; assay: 2PLSM dendritic Ca2+ imaging on focal S1P application (functional Gpr6 receptors), BAC D2 neurons in brain slices; assay type: cell-based, mouse; settings: for Percent increase in fluorescence (ΔG/R), median: S1P puff 10 μM
Description: Gpr6 encodes a G protein-coupled receptor for the lysophospholipid sphingosine 1-phosphate (S1P) (A. Ignatov, J. Lintzel, H. J. Kreienkamp, H. C. Schaller, Biochem Biophys Res Commun 311, 329-36 (Nov. 14, 2003)). In heterologous expression systems, S1P activation of Gpr6 receptors induces the release of Ca2+ from intracellular stores. […] To determine whether functional Gpr6 receptors were selectively expressed in striatopallidal neurons, BAC D2 striatopallidal or BAC D1 striatonigral medium spiny neurons (expressing soluble eGFP) were identified in brain slices and patch clamped (FIG. 30) (M. Day et al., Nat Neurosci 9, 251-9 (February, 2006)). Neurons were loaded with Alexa 594 (50 μM) to allow dendrites to be seen and with Fluo-4 (200 μM) to monitor intracellular Ca2+ concentration using 2-photon laser scanning microscopy (2PLSM). After allowing the dyes to equilibrate, neurons were imaged and a second pipette containing S1P (10 μM) was brought into close physical proximity to a dendrite, 60-80 microns from the soma (a and b). […] Nairn, P. Greengard, J Neurochem 72, 2015-21 (May, 1999)) and/or inhibition of adenylyl cyclase type 5 (AC5; Adcy5) (C.
Striatonigral (BAC D1) or striatopallidal (BAC D2) neurons expressing soluble eGFP (S. Falcon, R. Person, Bioinformatics 23, 257-8 (2007)) in 275 μm thick corticostriatal slices were identified by somatic eGFP fluorescence. eGFP 2PLSM green signals (500-550 nm) were acquired from eGFP+ BAC Drd2 neurons using 810 nm excitation, while eGFP+ BAC Drd1 neurons required 900 nm excitation. eGFP+ MSNs were then patched using infrared-differential interference contrast (IR-DIC) video microscopy with a Hamamatsu C2400 Newvicon camera/controller system (Hamamatsu, Japan) and a 60X/0.9NA water-dipping lens. […] The pipette solution contained the following (in mM): 135 KMeSO4 (ICN Biomedicals Inc., Aurora, Ohio), 5 KCl, 10 HEPES, 2 MgATP, 0.2 Na2GTP, and 0.1 spermine, pH=7.25-7.3 with KOH, 270 mOsm/l. As measured in the bath, the pipette resistance was ˜4 MΩ. Seals were formed in voltage-clamp mode on the cell somas with series resistance >1 GΩ. After seal rupture in whole-cell configuration the series-resistance decreased to 10-15 MΩ. […] The thapsigargin was initially dissolved in DMSO at a concentration of 10 mM. This stock was then diluted 1000× in the internal recording solution. Following break in, the internal solution was allowed to approach diffusional equilibrium for at least 15 min prior to imaging. The cells were voltage clamped at −70 mV and monitored for somatic depolarization.
For the duration of the recordings, 2PLSM green and red signals (570-620 nm) were acquired using 810 nm excitation with 90 MHz pulse repetition frequency and ˜250 fs pulse duration at the sample plane.

[2] = system: BAC D1 striatonigral medium spiny neurons; assay: 2PLSM dendritic Ca2+ imaging on focal S1P application, BAC D1 neurons in brain slices; assay type: cell-based, mouse; settings: S1P puff 10 μM, n=4
Description: Gpr6 encodes a G protein-coupled receptor for the lysophospholipid sphingosine 1-phosphate (S1P) (A. Ignatov, J. Lintzel, H. J. Kreienkamp, H. C. Schaller, Biochem Biophys Res Commun 311, 329-36 (Nov. 14, 2003)). In heterologous expression systems, S1P activation of Gpr6 receptors induces the release of Ca2+ from intracellular stores. […] To determine whether functional Gpr6 receptors were selectively expressed in striatopallidal neurons, BAC D2 striatopallidal or BAC D1 striatonigral medium spiny neurons (expressing soluble eGFP) were identified in brain slices and patch clamped (FIG. 30) (M. Day et al., Nat Neurosci 9, 251-9 (February, 2006)). […]
Striatonigral (BAC D1) or striatopallidal (BAC D2) neurons expressing soluble eGFP (S. Falcon, R. Person, Bioinformatics 23, 257-8 (2007)) in 275 μm thick corticostriatal slices were identified by somatic eGFP fluorescence. eGFP 2PLSM green signals (500-550 nm) were acquired from eGFP+ BAC Drd2 neurons using 810 nm excitation, while eGFP+ BAC Drd1 neurons required 900 nm excitation. eGFP+ MSNs were then patched using infrared-differential interference contrast (IR-DIC) video microscopy with a Hamamatsu C2400 Newvicon camera/controller system (Hamamatsu, Japan) and a 60X/0.9NA water-dipping lens. […] As measured in the bath, the pipette resistance was ˜4 MΩ. […] The cells were voltage clamped at −70 mV and monitored for somatic depolarization. […]

[3] = system: GABAA receptor mIPSCs in BAC D2 striatopallidal neurons; assay: Whole-cell voltage-clamp GABAergic mIPSC recording after 15-day cocaine treatment, BAC D2 neurons; assay type: in vivo, mouse; settings: cocaine 15 days
[4] = system: GABAA receptor mIPSCs in BAC D1 striatonigral neurons; assay: Whole-cell voltage-clamp GABAergic mIPSC recording after 15-day cocaine treatment, BAC D1 neurons
[5] = system: Ferritin heavy chain mRNA (Fth1); settings: 100 μg/ml ferric ammonium citrate, 36 hours, HEK293T
Experimental: Rapid immunoaffinity purification of polysomes was achieved from HEK293T cells transiently transfected with the eGFP-L10a transgene but not mock transfected cells. HEK293T cells transfected with eGFP-L10a were homogenized in lysis buffer. The solubilized and clarified lysate was loaded onto a linear density (20-50% w/w) gradient of sucrose and centrifuged for 2 hours at 4° C. using a Beckman SW41 rotor at 40,000 r. p. m. (200,000×g). 750 μl fractions were collected as absorbance at 254 nm was monitored with an ISCO UA-6 UV detector.
HEK293T cells were transiently transfected (˜30% efficiency) with eGFP (mock) or eGFP-L10a constructs and grown in medium alone (no treatment, NT) or in medium supplemented with 100 μg/ml ferric ammonium citrate [pH 7.0] (iron) for 36 hours. […] (b) The post-mitochondrial supernatants of untreated or iron-treated cells were loaded onto linear sucrose gradients (20-50% w/w). After velocity sedimentation, fractions (direction of sedimentation noted by arrow) were collected while UV absorbance (254 nm) was being measured. […] Non-polysome and polysome gradient fractions were generated as indicated. To avoid Ferritin mRNAs associated with mRNPs, only heavier polysomes (with greater than 4 ribosomes) were included in the polysome fraction. […] (e) To determine if the translating ribosome affinity purification (TRAP) methodology could faithfully reflect the changes observed in c, a direct eGFP immunoprecipitation of post-mitochondrial supernatants (whole cell lysates, unfractionated) was performed.
In some experiments, 20 ng of purified RNA was used to produce cDNA with a NuGEN WT Ovation kit (NuGEN Technologies, San Carlos, Calif.) and the resulting cDNA was purified and quantified. 10 ng of cDNA was used for each real-time gene expression assay. Applied Biosystems (Foster City, Calif.) TaqMan pre-designed gene expression assays were used, following the manufacturer's instructions and using an Applied Biosystems 7900 Sequence Detection System.
Table 10). To provide an initial test of the data, quantitative PCR studies were carried out using independent biological BACarray D1 and D2 samples and a different cDNA amplification procedure (A. Alexa, J. Rahnenfuhrer, T. Lengauer, Bioinformatics 22, 1600-7 (2006)).

[6] = iron treatment, range from replicates

## CCCCCCCCCCCCC/C=C/[C@@H](O)[C@@H](N)COP(=O)(O)O [S1P, sphingosine 1-phosphate]
DARPP-32
  threonine 34 DARPP-32 phosphorylation: 0.58 normalized units
[1]; BAC D2 medium spiny neurons, n=6
  Percent increase in fluorescence (ΔG/R), median: 146%
[1]; thapsigargin loaded BAC D2 medium spiny neurons, n=4
  Percent increase in fluorescence (ΔG/R), median: 4%
[1]; focal application of S1P 10 μM, clamped at −70 mV, BAC D2
  dendritic Ca2+ levels: consistently and reversibly increased
[2]
  Percent increase in fluorescence (ΔG/R), median: 17%

## COC(=O)[C@H]1[C@@H](OC(=O)c2ccccc2)C[C@@H]2CC[C@H]1N2C [cocaine]
[3]; saline 0.65±0.007
  mean 10-90% rise times of mIPSCs: 0.64±0.010
[3]; saline 0.72±0.05 Hz
  mean mIPSC frequency: 0.78±0.07 Hz
[3]; saline 33.8±2.7
  mean number of channels per synapse (N): 33.0±1.6
[3]; saline 68.1±9.7
  number of small amplitude mIPSCs (<75 pA) in equal length records (7 min): 71.7±7.5
[3]; saline N=29
  number of receptors per synapse (N), representative variance-mean current plot: 31
[3]; saline g=33 pS
  unitary receptor conductance (g), representative variance-mean current plot: 29 pS
[4]; cocaine 20 mg/kg/day 15 days, saline median 0.82 Hz
  mIPSC frequency, median: 1.03 Hz
[4]; cocaine 15 days, saline 0.64±0.008
  mean 10-90% rise times of mIPSCs: 0.65±0.006
[4]; cocaine 15 days, saline 33.1±1.4
  mean number of channels per synapse (N): 29.3±1.0
[4]; cocaine 15 days, saline 79.4±8.2
  number of small amplitude mIPSCs (<75 pA) in equal length records (7 min): 104.2±6.3
[4]; cocaine 15 days, saline N=33
  GABAA receptors (N) per synapse, representative variance-mean current plot: 27
[4]; cocaine 15 days, saline g=31 pS
  unitary receptor conductance (g), representative variance-mean current plot: 30 pS

## C/C=C(/C)C(=O)O[C@H]1C(C)=C2[C@H]([C@@H]1OC(=O)CCCCCCC)[C@@](C)(OC(C)=O)C[C@H](OC(=O)CCC)[C@@]1(O)[C@H]2OC(=O)[C@@]1(C)O [thapsigargin]
[1]; thapsigargin 10 μM in pipette, depletion of intracellular Ca2+ stores
  response to S1P in BAC D2 striatopallidal neurons: abolished

## ferric ammonium citrate [iron]
[5]; IP from polysomes
  iron-induced fold-change in Fth1 mRNA levels relative to Actb mRNA, polysome IP samples: 2.01-2.43
[5]; IP from whole cell lysates
  iron-induced fold-change in Fth1 mRNA levels relative to Actb mRNA, direct IP samples: 1.80-1.93
[5]; [6]
  range of fold-change of Fth1 mRNA in non-polysome fraction: 0.16-0.22
  range of fold-change of Fth1 mRNA in polysome fraction: 1.83-2.15
